Experimental data from US9835558B2, “Aggregation-induced emission luminogen having an peptide sequence and its uses thereof” (priority 2015, dated 2017).
Residues, ends and D or L forms follow the SMILES beside them. *: point of attachment. X1 = O=C(COc1ccc(C(=C(c2ccccc2)c2ccccc2)c2ccccc2)cc1)*; Palmitoyl = CCCCCCCCCCCCCCCC(=O)*

Test: cyto-toxicity by MTT assay
Format: cell-based
Conditions: human, MCF-7 cells; TR4 0.05-50 μM, incubation for 30 min, MCF-7, data not shown; read-out: cellular viability

Structure (SMILES): CCCCCCCCCCCCCCCC(=O)NCCCC[C@H](NC(=O)COc1ccc(C(=C(c2ccccc2)c2ccccc2)c2ccccc2)cc1)C(=O)N[C@@H](CCCNC(=N)N)C(=O)N[C@@H](CCCNC(=N)N)C(=O)N[C@@H](CCCNC(=N)N)C(=O)N[C@@H](CCCNC(=N)N)C(N)=O [TR4] (X1-K(Palmitoyl)RRRR-NH2)
- viability at 0.5 h: > 80%
